Data on 8 compounds can be found in patent publication US5559232A, “Carboxamides” (Hoffmann-La Roche Inc., priority 1993, dated 1996).

In one assay the target is trypsin. Description: inhibition of the amidolytic activity of trypsin (chromogenic substrate S-2251). The assay is classed as biochemical. The conditions noted are these: substrate S-2251, 200 and 750 μM, otherwise analogous to thrombin.
The target in another assay is human thrombin (Homo sapiens, UniProt P00734). Description: inhibition of the amidolytic activity of thrombin (chromogenic substrate S-2238). The format is biochemical. The conditions noted are these: for Ki: human thrombin 0.5 nM, substrate S-2238, pH 7.8, room temperature; for q (ratio of the inhibition of trypsin to the inhibition of thrombin): specificity: Ki trypsin / Ki thrombin. As for the experimental part: A differential inhibition of thrombin and other serine proteases by the above compounds is desirable in order to obtain compounds having as high a specificity as possible and at the same time to avoid possible side-effects.
Specific chromogenic peptide substrates can be used to determine the inhibition of the catalytic activity of the above proteases. The inhibition of the amidolytic activity of thrombin and trypsin by the above guanidines was determined as described hereinafter.
The measurements were carried out on microtitre plates at room temperature. For this, in each well of the plate 150 μl of buffer (50 mM Tris, 100 mM NaCl, 0.1% polyethylene glycol; pH 7.8) were mixed with 50 μl of the inhibitor dissolved in DMSO and diluted in the buffer, and 25 μl of human thrombin (0.5 nM final conc.) were added. After incubation for 10 minutes the reaction was started by the addition of chromogenic substrate S-2238 (H-D-Phe-Pip-Arg-paranitroaniline from Kabivitrum; 10 or 50 μm final conc.) and the hydrolysis of the substrate was followed spectrophotometrically on a kinetic microtiter plate reader for 5 minutes. After graphical presentation of the inhibition curves the Ki values were determined according to the method described in Blochem. J. 55, 1955, 170-171.

As a reminder, the Ki is the equilibrium dissociation constant of an inhibitor or competing ligand from its target.

Structures are written as SMILES.

`N=C(N)N1CCC[C@@H](CNC(=O)C[C@H](NC(=O)NCc2ccccc2)C(=O)N(CC(=O)O)C2CC2)C1` [Example 11, [[(S)-3-[(S)-1-(amino-imino-methyl)-piperidin-3-ylmethylcarbamoyl]2-(3-benzyl-ureido)-propionyl]-cyclopropyl-amino]-acetic acid]: the inhibition constant Ki at trypsin turned out to be 35 µM. On human thrombin, the inhibitory constant (Ki) turned out to be 0.043 µM and the “q (ratio of the inhibition of trypsin to the inhibition of thrombin)” value worked out at 814.

In the case of `N=C(N)N1CCC[C@@H](CNC(=O)C[C@H]2C(=O)N(C3CC3)CC(=O)N2S(=O)(=O)c2ccc3ccccc3c2)C1` [Example 15, N-[(S)-1-(amino-imino-methyl)-piperidin-3-ylmethyl]-2-[(S)-4-cyclopropyl-1-naphthalen-2-ylsulphonyl-3,6-dioxo-piperazin-2-yl]-acetamide], the inhibitory constant (Ki) at trypsin was found to be 13 µM; on human thrombin it was 0.0018 µM. Also, the “q (ratio of the inhibition of trypsin to the inhibition of thrombin)” value at human thrombin is 7222.

For the compound `COC(=O)CC[C@H](O)C(=O)N[C@@H](CC(=O)NC[C@@H]1CCCN(C(=N)N)C1)C(=O)N(CCNC(=O)c1cnccn1)C1CC1` [Example 21b, methyl (S)-4-[(S)-2-[(S)-1-(amino-imino-methyl)-piperidin-3-ylmethylcarbonyl]-1-[cyclopropyl-(2-pyrazin-2-ylcarbonylaminoethyl)-carbamoyl]-ethylcarbamoyl]-4-hydroxy-butrate], the Ki at trypsin amounted to 14 µM; on human thrombin, 0.0072 µM. Besides, the “q (ratio of the inhibition of trypsin to the inhibition of thrombin)” value at human thrombin is on record as 1944.

Take `CCCCC(=O)N[C@@H](CC(=O)NC[C@@H]1CCCN(C(=N)N)C1)C(=O)N(CC(=O)O)C1CC1` [Example 14a, [[(S)-3-[(S)-1-(Amino-imino-methyl)-piperidin-3-ylmethylcarbamoyl]-2-pentanoylamino-propionyl]-cyclopropyl-amino]acetic acid]: the Ki came out at 64 µM on trypsin and 0.019 µM at human thrombin. For the same compound, the “q (ratio of the inhibition of trypsin to the inhibition of thrombin)” value at human thrombin was 3368.

For `N=C(N)N1CCC[C@@H](CNC(=O)C[C@H](NS(=O)(=O)N2CCOCC2)C(=O)N(CCNC(=O)OCc2ccccc2)C2CC2)C1` [Example 23, benzyl 2-[[(S)-3-[(S)-1-(amino-imino-methyl)-piperidin-3-ylmethylcarbamoyl]-2-morpholin-4-ylsulphonylamino-propionyl]cyclopropyl-amino]-ethylcarbamate], affinity on trypsin was put at a Ki of 13 µM. Moreover, at human thrombin, the affinity corresponds to a Ki of 0.0046 µM and the “q (ratio of the inhibition of trypsin to the inhibition of thrombin)” value stood at 2826.

As for `N=C(N)N1CCC[C@@H](CNC(=O)C[C@H](NC(=O)CSc2ncccn2)C(=O)N(CCNC(=O)c2cnccn2)C2CC2)C1` [Example 20, (S)-N4-[(S)-1-(amino-imino-methyl)-piperidin-3-ylmethyl]-N1-cyclopropyl-N1-(2-pyrazin-2-ylcarbonylamino-ethyl)-2-pyrimidin-2-ylsulphanylacetylamino-succinamide], at human thrombin, the Ki is 0.00086 µM and the “q (ratio of the inhibition of trypsin to the inhibition of thrombin)” value turned out to be 5233.

With `N=C(N)N1CCC[C@@H](CNC(=O)C[C@H](NC(=O)COc2ccccc2)C(=O)N(CCNC(=O)c2cnccn2)C2CC2)C1` [Example 21d, N4-[(S)-1-(amino-imino-methyl)-piperidin-3-ylmethyl]N1-cyclopropyl-2-phenoxyacetylamino-N1-(2-pyrazin-2-ylcarbonylamino-ethyl)-succinamide], at human thrombin, the affinity, expressed as Ki, was 0.0013 µM and the “q (ratio of the inhibition of trypsin to the inhibition of thrombin)” value turned out to be 19231.

For the compound `N=C(N)N1CCOC(CNC(=O)C[C@H](NC(=O)OCc2ccccc2)C(=O)N(CC(=O)O)C2CC2)C1` (stereo partly drawn) [Example 6a], at human thrombin, the Ki came out at 0.45 µM and the “q (ratio of the inhibition of trypsin to the inhibition of thrombin)” value is 311.
